One experiment relates to MRSA. In words: Potentiating effect of galloyl quinic acid derivatives for the antibacterial activity of oxacillin (agar plate dilution method, MIC). Type of experiment: cell-based, Staphylococcus aureus. Here is the method: (§1) According to the agar plate dilution method defined by Japan Society of Chemotherapy, MIC (Minimum inhibitory concentration) was determined. CAMHA was prepared by adding 50 mg/l of Ca-ion, 25 mg/l of Mg-ion, and 2% of NaCl to Mueller-Hinton II Agar (MHA), and it was used as a medium for use in the measurement of sensitivity. The bacterial liquid was incubated at 37° C. overnight and diluted to 10^6 CFU/ml with saline.
It was confirmed that the known substances shown below were contained in “Tara” and their MICs were determined as described in example 2 with respect to the effects of the combination use with oxacillin

The next experiment deals with MRSA and MSSA. Briefly: Antibacterial activity of gallic acid, various gallates and multivalent phenol derivatives alone (agar plate dilution method, MIC). The conditions noted are these: Staphylococcus aureus. Type of experiment: cell-based, Staphylococcus aureus. Here is the method:
as §1
MIC for gallic acid, various gallates and multivalent phenol derivatives alone with MRSA and MSSA were determined as described in experiment 2.

≈ marks a conversion by molar mass, not a printed value. Entries after “also recorded” stand apart in the source; their conditions may differ. Like-named read-outs stand apart in the source and are kept apart here.

With `O=C(OC1CC(O)(C(=O)O)CC(OC(=O)c2cc(O)c(O)c(O)c2)C1OC(=O)c1cc(O)c(O)c(O)c1)c1cc(O)c(O)c(O)c1` (centres unmarked) [3,4,5-trigalloylquinic acid], the “effect of combination use with oxacillin (words)” value (“effect of combination use” for short) in the experiment on MRSA is on record as “excellent; also recorded: most potent”.
On to `O=C(OC1CC(O)(C(=O)O)CC(O)C1OC(=O)c1cc(O)c(O)c(O)c1)c1cc(O)c(O)c(O)c1` (centres unmarked) [3,4-digalloylquinic acid], for which the “effect of combination use” value in the experiment with MRSA was “weak effects”.
On the same count and under the same terms, then `COC(=O)C1(O)CC(OC(=O)c2cc(O)c(O)c(O)c2)C(OC(=O)c2cc(O)c(O)c(O)c2)C(OC(=O)c2cc(O)c(O)c(O)c2)C1` (centres unmarked) [Methyl 3,4,5-trigalloylquinate, methyl 3,4,5-trigalloylquinate], with “weak effects”.
In the case of `COC(=O)C1(O)CC(O)C(OC(=O)c2cc(O)c(O)c(O)c2)C(OC(=O)c2cc(O)c(O)c(O)c2)C1` (centres unmarked) [Methyl 4,5-digalloylquinate, methyl 4,5-digalloylquinate], the “effect of combination use” value in the experiment with MRSA is on record as “follows”; with MRSA (listed as methyl 4,5-digalloylquinate), “excellent”.
In the experiment on MRSA and MSSA, `CCCCCOC(=O)c1ccc(O)cc1` [n-Amyl 4-hydroxybenzoate] returned an MIC50 of 62.5 µg/mL (≈ 300 µM). In addition, the MIC against MRSA and MSSA (ATCC 6538 / MRSA / MSSA) is 62.5 µg/mL (≈ 300 µM); with MRSA and MSSA (COL, compound alone, read-out: MIC), 62.5 µg/mL (≈ 300 µM); in the experiment with MRSA and MSSA (MRSA #1, compound alone, read-out: MIC), 62.5 µg/mL (≈ 300 µM); in the experiment with MRSA and MSSA (MRSA #2, compound alone, read-out: MIC), 62.5 µg/mL (≈ 300 µM); in the experiment on MRSA and MSSA (MRSA #3, compound alone, read-out: MIC), 62.5 µg/mL (≈ 300 µM); in the experiment with MRSA and MSSA (MRSA #4, compound alone, read-out: MIC) it was 62.5 µg/mL (≈ 300 µM). Further, the MIC worked out at 62.5 µg/mL (≈ 300 µM) with MRSA and MSSA (MRSA #5, compound alone, read-out: MIC); 31.3 µg/mL (≈ 150 µM) with MRSA and MSSA (MRSA #6, compound alone, read-out: MIC); 62.5 µg/mL (≈ 300 µM) in the experiment with MRSA and MSSA (MRSA #7, compound alone, read-out: MIC); 31.3 µg/mL (≈ 150 µM) in the experiment with MRSA and MSSA (MRSA #8, compound alone, read-out: MIC); 31.3 µg/mL (≈ 150 µM) in the experiment on MRSA and MSSA (MRSA #9, compound alone, read-out: MIC); 62.5 µg/mL (≈ 300 µM) with MRSA and MSSA (MRSA #10, compound alone, read-out: MIC). Moreover, the MIC with MRSA and MSSA (MRSA #12, compound alone, read-out: MIC) is 62.5 µg/mL (≈ 300 µM); in the experiment on MRSA and MSSA (MRSA #16, compound alone, read-out: MIC), 62.5 µg/mL (≈ 300 µM); with MRSA and MSSA (MRSA #17, compound alone, read-out: MIC) it was 62.5 µg/mL (≈ 300 µM); in the experiment on MRSA and MSSA (MRSA #18, compound alone, read-out: MIC) it was 62.5 µg/mL (≈ 300 µM); in the experiment on MRSA and MSSA (MRSA #20, compound alone, read-out: MIC), 62.5 µg/mL (≈ 300 µM); in the experiment on MRSA and MSSA (MRSA #21, compound alone, read-out: MIC) it was 62.5 µg/mL (≈ 300 µM). For the same molecule, the MIC turned out to be 62.5 µg/mL (≈ 300 µM) in the experiment on MRSA and MSSA (MRSA #22, compound alone, read-out: MIC); 62.5 µg/mL (≈ 300 µM) with MRSA and MSSA (MRSA #24, compound alone, read-out: MIC); 62.5 µg/mL (≈ 300 µM) with MRSA and MSSA (MSSA #1003, compound alone, read-out: MIC); 62.5 µg/mL (≈ 300 µM) in the experiment with MRSA and MSSA (MSSA #1010, compound alone, read-out: MIC); 62.5 µg/mL (≈ 300 µM) in the experiment with MRSA and MSSA (MSSA #1020, compound alone, read-out: MIC); 31.3 µg/mL (≈ 150 µM) with MRSA and MSSA (MSSA #1023, compound alone, read-out: MIC). For the same molecule, the MIC turned out to be 62.5 µg/mL (≈ 300 µM) in the experiment on MRSA and MSSA (MSSA #1029, compound alone, read-out: MIC); 62.5 µg/mL (≈ 300 µM) with MRSA and MSSA (MSSA #1032, compound alone, read-out: MIC).

The values are drawn from US20060235076A1, “Medicinal composition for treating infection with drug-resistant staphylococcus aureus” (priority 2003, published 2006).
